The values that follow come from patent publication US7649012B2, “Compounds, pharmaceutical compositions containing same, and methods of use for same” (FASgen, Inc., priority 2002, dated 2010).

Common to all, as to format: cell-based
Assay [1] relates to MCF-7 human breast cancer cells. Put plainly: [14C]acetate incorporation into total lipids. The following applies: Homo sapiens, MCF7, [14C]acetate incorporation into lipids. The method in brief:
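MCF-7 cells plated at 5×10^4 cells/well and exposed to compound for 4 h, then pulsed with 0.25 μCi [14C]acetate for 2 h. Lipids extracted with chloroform:methanol and counted by scintillation in triplicate. IC50 is the concentration giving 50% reduction in incorporation versus vehicle controls.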

The subject of assay [2] is Enterococcus faecalis (ATCC # 29212). The assay is described as follows: Broth microdilution MIC. Conditions: Enterococcus faecalis, ATCC29212. The method in brief: (§1)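 Run in Mueller Hinton Broth and Trypticase Soy Broth, with inoculum at 0.5 McFarland diluted 1:10 and compounds in DMSO at 25 to 0.78 ug/ml (final well concentrations not given) in duplicate. OD600 read after 24 h at 37° C; MIC derived by linear regression.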
Background: In broth dilution the organism is exposed to a series of concentrations in liquid medium.

The test system of assay [3] is Escherichia coli (ATCC # 25922). Put plainly: Broth microdilution MIC. The method in brief: as §1
Assay [4] relates to Pseudomonas aeruginosa (ATCC # 27853). The assay is described as follows: Broth microdilution MIC. The essentials: as §1
Assay [5] relates to Staphylococcus aureus (ATCC # 29213). The assay is described as follows: Broth microdilution MIC. The essentials: as §1

Converted amounts (≈) assume the structure as drawn. Like-named read-outs stand apart in the source and are kept apart here.

On to `CCCCCCCCC1(C)SC(=O)C=C1O` (stereo not drawn), for which the concentration for half-maximal inhibition (IC50) in assay [1] was determined as 12.6 ± 4.4 µg/mL (≈ 52 µM). Besides, the MIC turned out to be 16.9 µg/mL (≈ 69.7 µM) in assay [2] (Mueller Hinton Broth, read-out: EF/MH(MIC)); 3.3 µg/mL (≈ 13.6 µM) in assay [2] (Trypticase Soy Broth, read-out: EF/Tsoy(MIC)); 278 µg/mL (≈ 1150 µM) in assay [3] (Escherichia coli, ATCC25922, Trypticase Soy Broth, read-out: Ecoli/Tsoy(MIC)); 47 µg/mL (≈ 194 µM) in assay [5] (Staphylococcus aureus, ATCC29213, Trypticase Soy Broth, read-out: SA/Tsoy(MIC)). Moreover, in assay [3] (Mueller Hinton Broth), the “Ecoli/MH(MIC)” value is “Neg”. In assay [4] (Mueller Hinton Broth), the “PSAE/MH(MIC)” value is “Neg”. Besides, in assay [4] (Trypticase Soy Broth), the “PSAE/Tsoy(MIC)” value was “Neg”. Also, the “SA/MH(MIC)” value in assay [5] (Mueller Hinton Broth) was “Neg”.

By IC50 is commonly meant the concentration at which inhibition is half-maximal. Read a low IC50 as higher potency.
